# Values quoted from earlier work in patent publication US20070259967A1, “Methods of Diagnosis” (priority 2004, published 2007).
# Legend:
# Platelet MAO-B = molecular target: T1, Platelet MAO-B (Homo sapiens, UniProt P27338); conditions: 0.24 mM pargyline added as blank; 20 μM PEA, 37° C., 30 minutes; method from Zhou et al.
# T1 construct: the platelet pellet was resuspended with saline to obtain a concentration of 107 platelets/ml and then sonicated for 10 seconds; from tissue; host or cells: blood platelets (platelet rich plasma from fasting venous blood)
# T1 sequence (P27338 1-520): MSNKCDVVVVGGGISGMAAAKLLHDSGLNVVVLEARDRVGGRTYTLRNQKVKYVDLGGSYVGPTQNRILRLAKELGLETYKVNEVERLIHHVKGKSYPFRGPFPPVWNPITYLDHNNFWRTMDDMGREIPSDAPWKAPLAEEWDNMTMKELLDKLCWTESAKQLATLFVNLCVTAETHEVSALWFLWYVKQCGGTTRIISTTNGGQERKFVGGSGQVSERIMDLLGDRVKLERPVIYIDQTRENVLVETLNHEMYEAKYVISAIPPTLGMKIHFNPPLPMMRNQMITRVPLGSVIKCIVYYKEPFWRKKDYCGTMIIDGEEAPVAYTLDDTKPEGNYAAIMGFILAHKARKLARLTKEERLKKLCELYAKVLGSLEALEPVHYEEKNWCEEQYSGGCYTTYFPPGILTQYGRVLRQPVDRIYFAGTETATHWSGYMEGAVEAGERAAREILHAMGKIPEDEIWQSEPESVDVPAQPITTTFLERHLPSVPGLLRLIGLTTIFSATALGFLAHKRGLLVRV
# [1] = amphetamine administered to children with ADHD; Zametkin et al. 1984
# [2] = majority of the cited clinical studies of selegiline in ADHD
smiles,measurement,setting,value
C#CCN(C)Cc1ccccc1 [pargyline],production of PAA (phenylacetic acid),Platelet MAO-B,no production of PAA
CC(N)Cc1ccccc1 (stereo not drawn) [amphetamine],increase in the excretion of urinary phenylethylamine (PEA),[1],1600%
C#CCN(C)[C@H](C)Cc1ccccc1.Cl [selegiline],benefit to ADHD patients compared with psycho-stimulant treatment,[2],less benefit to the patients than psycho-stimulant treatment
